Experimental data: patent US20210324379A1 (priority 2018, published 2021)

Columns and labels:
HIV protease [1] = target: T1, HIV protease (Human immunodeficiency virus type 1 group M subtype B, UniProt P03366); type: cell-based; details: control cells within ALS mixed pool screen
Description: Ten disease models were probed as a mixed pool across a set of 22 small molecules. […] In these experiments cells containing HIV protease, DNAseI and mCherry served as controls.
Ten ALS models were probed as a mixed pool across a set of 22 small molecules. […] In these experiments, cells containing HIV protease and DNaseI served as positive controls, and cells containing mCherry served as negative controls.

HIV protease [2] = target: T1, HIV protease; type: cell-based; details: for rescue in 3Δ cells compared to wild type cells: Δpdr1 Δpdr3 Δsnq2 (3Δ) vs WT yeast, SC-ura galactose plates with indicated amount of inhibitor (FIG. 9)
Experimental: FIG. 5: Spot assays of Δpdr1 Δpdr3 Δsnq2 yeast expressing pAG426-GAL empty vector or pAG426-GAL-HIV protease. Strains were grown to saturation in SC-ura glucose media and serial dilutions (10-fold) of yeast were plated on SC-ura glucose or SC-ura galactose plates with or without 5 μM lopinavir added.
Cells expressing pAG426-GAL-HIV vectors were transformed into either wild type (WT) or Δpdr1 Δpdr3 Δsnq2 (3Δ) yeast which show a reduced ability to export exogenous small molecules from the cell. Cells were then grown overnight in SC-ura glucose media and spotted at 10-fold serial dilution onto SC-ura galactose plates containing the indicated amount of HIV protease inhibitor (Lopinavir or Saquinavir).

TAF15 = target: T2, TAF15 (Homo sapiens, UniProt Q92804); experiment: Manual spot assay of cultures plated in 5-fold dilutions (FIG. 12B); type: cell-based; details: consecutive 5-fold dilutions
T2 construct: expressed in transfected cells; host or cells: Saccharomyces cerevisiae, galactose-inducible expression
Experimental: (§1) Y axis represents drugs screened at 10 uM. X axis represents protein modeled and which cell line. WT=Natural expression of drug transporters. KO=No expression of multidrug transporters PDR1 and PDR3.
(§2) In addition, the presently disclosed screening methods were also applied towards an entirely orthogonal set of proteins. Aggregation-prone proteins are prevalent in numerous eukaryotic life forms and are implicated in a wide range of neurodegenerative diseases. […] In a drug screen of aggregation-prone proteins against 23 drugs, two significant interactions were identified (see FIG. 12A).

OPTN = target: T3, OPTN (Homo sapiens, UniProt Q96CV9); experiment: as above; type: cell-based; details: consecutive 5-fold dilutions
T3 construct: expressed in transfected cells; host or cells: Saccharomyces cerevisiae, galactose-inducible expression
Experimental: as §1, §2

mcherry = experiment: as above; type: cell-based; details: consecutive 5-fold dilutions
Experimental: as §1

ALS models = experiment: Pooled DNA barcoded drug screen of ALS models against 22 small molecules (FIG. 14/18); type: cell-based, yeast; details: ten ALS models as mixed pool
Experimental: Y axis represents drugs screened at 10 uM. X axis represents protein modeled and which cell line. WT=Natural expression of drug transporters.

HIV protease [3] = target: T1, HIV protease; type: cell-based; details: drugs screened at 10 μM; MAGeCK analysis; WT and KO cells
Experimental: (§3) Implementation of drug screening platform for proteases of viral or bacterial origin. Y axis represents drugs screened at 10 uM. X axis represents protein modeled and which cell line. WT=Natural expression of drug transporters. KO=No expression of PDR1, PDR3 and SNQ2.
(§4) All drugs were screened at a concentration of 10 μM. Barcoded cells expressing various protein drug targets were grown up individually on agar plates containing SC-ura-leu glucose. These strains were then inoculated into SC-ura-leu with glucose liquid culture media and after overnight growth were mixed together in equal amounts to generate the DNA barcoded library. The DNA barcoded library was then inoculated into SC-ura-leu with galactose liquid culture media with and without small molecule compounds.
(§5) Amplicons for NGS were generated through a two-step PCR protocol. Barcode sequences were amplified with Taq polymerase from genomic DNA preparations with primers anchored in constant regions of the 415-Kan-BC plasmid.

wimpy yeast = experiment: Off-target toxicity detection with barcoded wimpy yeast (FIG. 25B, 25D); type: cell-based; details: mixed pool
Description: FIG. 25A-FIG. 25D: Wimpy Yeast allow for detection of drugs causing off-target toxicity in barcoded yeast pools. […] FIG. 25C and FIG. 25D: For a subset of drugs with known specific rescue of various proteases and kinases, the present screen is able to capture these effects, and a corresponding decrease in growth of any of the tested wimpy yeast was not observed. For all figures each of the protein targets of interest expressed in the yeast cells or the genes knocked out of their genome is listed on the x-axis. […] FDR=false discovery rate, FDR for FIG. 25A and FIG. 25C are in relation to enrichment while FIG. 25B and FIG. 25D are in relation to depletion.
To detect drugs that have additional pleotropic effects, which may confound the interpretation by appearing to rescue specific models, but in fact was a result of off-target effects rather than on-target enzymatic inhibition, a series of “wimpy” yeast were developed that were engineered to be sensitive to a wide variety of off-target drug toxicities (i.e., perturbations to various biological pathways). These wimpy yeast strains are engineered by using genetic mutation to selectively render the cells hypersensitive to perturbations to various core cellular pathways. […]

[4] = tested on: protease and kinase expressing cells; experiment: Mixed pool barcoded drug screen of protease and kinase expressing yeast (Example 4, FIG. 23, 25); type: cell-based; details: FIG. 25A/25C
Description: FIG. 23A-FIG. 23C: Modulation of multidrug exporters enables the testing of multiple drug concentrations in parallel. FIG. 23A: Cells expressing wild type levels of multidrug exporters capture compound known to inhibit HIV protease activity. FIG. 23B: Similar to FIG. 23A, except cells are deficient in the expression of several multidrug exporters. A greater number of previously identified protease and kinase inhibitors are identified when using the drug exporter deficient background. FIG. 23C: The average degree of rescue, measured by the growth recovery of a specific yeast strain expressing a toxic protein, is higher in the knockout background as a result of higher intracellular drug concentrations. […] Furthermore, all of the hits shown are previously validated drug-target interactions. Each of the protein targets of interest expressed in the yeast cells is listed on the x-axis. […] FDR=false discovery rate, and is in relation to enrichment. […]
A single drug screen was performed on a mixed pool of yeast cells harboring various target proteins in order to identify compounds that interfere with each of the tested protein's function. […] In order to test multiple protein targets at a time, a unique DNA barcode was added to each yeast cell, such that when read using next generation sequencing, its abundance within a mixed pool can be quantified. […]

EYFP = type: cell-based; details: drugs screened at 10 μM; MAGeCK analysis
Experimental: as §3, §4, §5

T2 sequence (Q92804 whole entry): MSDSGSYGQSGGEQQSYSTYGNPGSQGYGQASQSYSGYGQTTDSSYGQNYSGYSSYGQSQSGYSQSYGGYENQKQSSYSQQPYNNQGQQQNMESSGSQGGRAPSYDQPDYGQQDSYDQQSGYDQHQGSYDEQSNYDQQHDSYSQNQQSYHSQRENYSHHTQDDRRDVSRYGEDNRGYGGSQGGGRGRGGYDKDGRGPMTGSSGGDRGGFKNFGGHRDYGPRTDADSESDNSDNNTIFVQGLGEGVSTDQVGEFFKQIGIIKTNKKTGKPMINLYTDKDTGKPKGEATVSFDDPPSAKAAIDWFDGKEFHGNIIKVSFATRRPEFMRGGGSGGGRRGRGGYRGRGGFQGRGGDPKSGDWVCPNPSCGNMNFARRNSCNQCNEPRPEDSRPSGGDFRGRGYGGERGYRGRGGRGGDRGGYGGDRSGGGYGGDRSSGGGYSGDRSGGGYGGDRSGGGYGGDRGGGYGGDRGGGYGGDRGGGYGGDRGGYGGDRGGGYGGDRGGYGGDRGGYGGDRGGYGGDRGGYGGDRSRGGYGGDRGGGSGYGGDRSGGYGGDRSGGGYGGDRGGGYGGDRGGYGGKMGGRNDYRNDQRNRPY
T3 sequence (Q96CV9 whole entry): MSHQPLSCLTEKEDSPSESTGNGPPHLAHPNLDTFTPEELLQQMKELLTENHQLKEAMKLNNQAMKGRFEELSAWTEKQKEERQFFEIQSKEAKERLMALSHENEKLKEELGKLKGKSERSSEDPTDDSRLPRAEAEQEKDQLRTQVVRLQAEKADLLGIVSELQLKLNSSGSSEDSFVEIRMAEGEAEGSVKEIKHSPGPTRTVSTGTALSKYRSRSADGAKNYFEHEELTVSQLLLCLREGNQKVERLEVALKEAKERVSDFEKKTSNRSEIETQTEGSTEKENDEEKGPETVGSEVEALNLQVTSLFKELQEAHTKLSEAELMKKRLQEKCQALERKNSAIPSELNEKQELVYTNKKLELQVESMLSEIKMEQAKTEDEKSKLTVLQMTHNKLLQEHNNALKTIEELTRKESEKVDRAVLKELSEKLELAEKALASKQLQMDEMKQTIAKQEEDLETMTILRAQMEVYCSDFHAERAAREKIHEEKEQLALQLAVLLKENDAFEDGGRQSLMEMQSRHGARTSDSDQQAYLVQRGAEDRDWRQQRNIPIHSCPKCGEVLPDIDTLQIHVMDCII

Question: `CC(C)CN(C[C@@H](O)[C@H](Cc1ccccc1)NC(=O)O[C@H]1CO[C@H]2OCC[C@H]21)S(=O)(=O)c1ccc(N)cc1` [Darunavir] was tested. Which “rescue of growth for cells expressing HIV protease” value (HIV protease [1]) did it give?
Answer: The value was “expected rescue of growth”.

Question: Which “rescue in 3Δ cells compared to wild type cells” value (HIV protease [2]) does the source give for `Cc1cccc(C)c1OCC(=O)N[C@@H](Cc1ccccc1)[C@@H](O)C[C@H](Cc1ccccc1)NC(=O)[C@H](C(C)C)N1CCCNC1=O` [Lopinavir] here?
Answer: The value was “significant increases in rescue”.

Question: And the “mitigation of toxicity of yeast expressing HIV protease” value (HIV protease [2]; Δpdr1 Δpdr3 Δsnq2 yeast, SC-ura galactose plates, 5 μM lopinavir (FIG. 5))?
Answer: The value was “toxicity can be mitigated”.

Question: With `Nc1nc2ccc(OC(F)(F)F)cc2s1` [Riluzole] as the compound, how does the “growth of TAF15 expressing cells in the presence of drug” value (TAF15) read?
Answer: Its value is “decreased growth”.

Question: And the “growth of OPTN expressing cells in the presence of drug” value (OPTN)?
Answer: The value was “slight growth improvement”.

Question: And the “growth of mcherry expressing cells in the presence of drug” value (mcherry)?
Answer: Its value is “decreased growth”.

Question: And the “hit among >200 tested ALS gene-drug interactions” value (ALS models)?
Answer: Its value is “potential hits”.

Question: For `CC(C)(C)NC(=O)[C@@H]1C[C@@H]2CCCC[C@@H]2CN1C[C@@H](O)[C@H](Cc1ccccc1)NC(=O)[C@H](CC(N)=O)NC(=O)c1ccc2ccccc2n1` [Saquinavir], which “rescue in 3Δ cells compared to wild type cells” value (HIV protease [2]) is on record?
Answer: The value was “significant increases in rescue”.

Question: For `COC(=O)N[C@H](C(=O)N[C@@H](Cc1ccccc1)[C@@H](O)CN(Cc1ccc(-c2ccccn2)cc1)NC(=O)[C@@H](NC(=O)OC)C(C)(C)C)C(C)(C)C` [atazanavir], which “barcode enrichment / protein-drug interaction for cells expressing HIV protease” value (HIV protease [3]) is on record?
Answer: The value was “protein-drug interactions”.

Question: `CC(=O)[C@]1(O)Cc2c(O)c3c(c(O)c2[C@@H](O[C@H]2C[C@H](N)[C@H](O)[C@H](C)O2)C1)C(=O)c1ccccc1C3=O` [idarubicin] was tested. Which “growth of the wimpy yeast models (barcode depletion)” value (wimpy yeast) did it give?
Answer: Its value is “decrease in the growth”.

Question: What about the “rescue of protease and kinase expressing cells (barcode enrichment)” value [4] of the same compound?
Answer: The value was “significant rescue”.

Question: For `CCCC(CCC)C(=O)O` [valproic acid], which “non-specific drug interaction with control-expressing cells” value (EYFP) is on record?
Answer: The value was “non-specific drug interactions”.
